Measurements reported in US11873295B2, “Allosteric chromenone inhibitors of phosphoinositide 3-kinase (PI3K) for the treatment of disease” (Petra Pharma Corporation, priority 2021, dated 2024).

Key:
[1] = target: T1, human full length PIK3KA Wild-type (p110α/p85α complex) (Homo sapiens, UniProt P42336); assay: PI3K-alpha kinase (PIK3CA) biochemical activity, wild-type, ADP-Glo; settings: PI3K-α (PIK3CA) biochemical
T1 construct: Recombinant, catalytically active human full length PIK3KA Wild-type and H1047R mutant were purchased as 1:1 complex; 6xHis (N); purchased EMD Millipore Sigma 14-602M
From the text: (§1) PI3K-Alpha Kinase (PIK3CA) Activity, Wild-Type and H1047R Mutant and Determining IC50 Values for Inhibitors
(§2) Recombinant, catalytically active human full length PIK3KA Wild-type and H1047R mutant were purchased as 1:1 complex of N-terminal 6× his tagged p110α (catalytic) and untagged p85α (regulatory subunit) from EMD Millipore Sigma (cat. no. 14-602M and 14-792M, respectively). PIP2diC8 (Avanti Polar Lipids Inc., cat. no. 850185) or Soy PI (Avanti Polar Lipids Inc., cat. No. 840044P) was used as lipid substrate. PIP2diC8 or PI lyophilized powder was dissolved in milliQ water to a concentration of 1 mM just before use. 10 mM stock compounds in DMSO were serially diluted 1:3 to generate a 10-point curve and plated using an acoustic liquid handler system (Echo 550 series instrument, Labcyte). A 10× intermediate compound plate (200 uM starting compound concentration and 10% DMSO) was prepared before starting the reaction. A typical reaction mixture (50 uL) comprised 40 mM HEPES buffer, pH 7.4, 25 mM MgCl2, 0.01% v/v triton-X-100, 1% v/v DMSO, 20 mM NaCl, 1-5 nM WT or H1047R PI3K protein, 20 uM ATP, and 50 uM PIP2diC8 or Soy PI. 1% DMSO buffer alone without test compound was employed as MAX control (full activity in the absence of any inhibitor), and no enzyme control was used to determine the level of background Adenosine 5′-diphosphate (ADP) (MIN control). First, Wild-type (WT) and H1047R mutant protein in kinase buffer with all components except ATP were incubated with or without compound at 27° C. for 1 h. After the pre-incubation, the reaction was initiated by the addition of 20 uL of 50 uM ATP (20 uM final concentration). The reaction was allowed to proceed until about 10% conversion of ATP (2 uM ADP) at 27° C. After that time, 5 uL of reaction was mixed with 5 uL of ADP-Kinase Glo Reagent (ADP-Glo Kinase assay kit, Promega cat. no. V9102) supplemented with MgCl2 10 mM to stop the reaction and deplete the remaining ATP for 40 min at room temperature. Then, 10 uL of Kinase Detection Reagent (ADP-Glo Kinase assay kit, Promega cat. no. V9102) was added to simultaneously convert ADP to ATP and allow the newly synthesized ATP to be measured using a luciferase/luciferin reaction. After 30 min at room temperature the light generated was measured using a luminometer (EnVision plate reader, Perkin Elmer). Process data through Genedata-Screener tool. Relative IC50 values are determined using luminescence units by calculating percent inhibition with respect to on-plate “MIN” and “MAX” controls. Data was analyzed using a 4-parameter nonlinear logistic equation (four-parameter logistic concentration-response curve): Y=bot+[(top−bot)/1+(x/IC50)slope] where Y=% inhibition, X=concentration yielding y % inhibition, Bottom=minimum value of y attained by curve, Top=maximum value of y attained by curve and Slope=steepness of curve at IC50. % Inh=[(median Max−x/median Max−median Min)]·100 IC50: concentration of compound that reduces a given response (ligand binding, enzyme response) by 50%. IC50 relative: concentration giving half the compound's maximum response.
(§3) For IC50 values shown in Table A, “A” means IC50<0.5 μM; “B” means IC50 ranging between 0.5 μM and 1.0 μM; “C” means IC50 ranging between 1 μM and 5 μM; “D” means IC50 ranging between 5 μM and 10 μM; “E” means IC50>10 μM.

[2] = target: T2, human full length PIK3KA H1047R mutant (p110α/p85α complex) (Homo sapiens, UniProt P42336, H1047R); assay: PI3K-alpha kinase (PIK3CA) biochemical activity, H1047R mutant, ADP-Glo; settings: PI3K-α (PIK3CA) biochemical, H1047R mutant
T2 construct: Recombinant, catalytically active human full length PIK3KA Wild-type and H1047R mutant were purchased as 1:1 complex; 6xHis (N); purchased EMD Millipore Sigma 14-792M
T2 sequence (P42336 whole entry H1047R): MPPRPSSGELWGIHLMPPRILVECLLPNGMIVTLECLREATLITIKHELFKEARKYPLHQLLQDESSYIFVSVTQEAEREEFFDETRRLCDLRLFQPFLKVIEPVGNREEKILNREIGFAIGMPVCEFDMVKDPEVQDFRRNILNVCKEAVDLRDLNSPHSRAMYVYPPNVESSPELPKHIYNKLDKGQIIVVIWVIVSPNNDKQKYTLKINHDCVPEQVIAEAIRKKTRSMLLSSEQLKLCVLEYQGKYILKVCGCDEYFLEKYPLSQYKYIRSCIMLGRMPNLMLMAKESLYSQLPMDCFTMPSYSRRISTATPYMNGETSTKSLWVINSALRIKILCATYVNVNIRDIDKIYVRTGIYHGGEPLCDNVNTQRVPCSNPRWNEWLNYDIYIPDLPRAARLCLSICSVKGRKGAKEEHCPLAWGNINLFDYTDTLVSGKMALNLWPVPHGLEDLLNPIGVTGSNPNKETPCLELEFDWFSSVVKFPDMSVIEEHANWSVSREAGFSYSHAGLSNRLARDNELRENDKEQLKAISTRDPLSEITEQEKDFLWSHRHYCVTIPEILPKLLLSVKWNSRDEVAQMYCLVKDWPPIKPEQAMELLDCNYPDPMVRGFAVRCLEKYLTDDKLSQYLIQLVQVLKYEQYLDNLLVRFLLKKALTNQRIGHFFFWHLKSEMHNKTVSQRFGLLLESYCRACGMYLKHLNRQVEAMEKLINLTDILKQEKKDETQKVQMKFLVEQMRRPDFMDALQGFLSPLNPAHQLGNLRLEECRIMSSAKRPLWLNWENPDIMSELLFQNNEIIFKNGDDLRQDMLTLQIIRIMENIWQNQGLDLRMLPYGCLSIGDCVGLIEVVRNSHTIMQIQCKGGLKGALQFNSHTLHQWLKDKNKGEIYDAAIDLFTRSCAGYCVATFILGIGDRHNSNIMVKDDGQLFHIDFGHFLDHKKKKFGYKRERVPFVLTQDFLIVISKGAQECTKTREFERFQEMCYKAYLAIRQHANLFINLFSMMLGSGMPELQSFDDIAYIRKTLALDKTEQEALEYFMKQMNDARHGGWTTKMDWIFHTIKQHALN
T2 sequence (P27986 whole entry partner): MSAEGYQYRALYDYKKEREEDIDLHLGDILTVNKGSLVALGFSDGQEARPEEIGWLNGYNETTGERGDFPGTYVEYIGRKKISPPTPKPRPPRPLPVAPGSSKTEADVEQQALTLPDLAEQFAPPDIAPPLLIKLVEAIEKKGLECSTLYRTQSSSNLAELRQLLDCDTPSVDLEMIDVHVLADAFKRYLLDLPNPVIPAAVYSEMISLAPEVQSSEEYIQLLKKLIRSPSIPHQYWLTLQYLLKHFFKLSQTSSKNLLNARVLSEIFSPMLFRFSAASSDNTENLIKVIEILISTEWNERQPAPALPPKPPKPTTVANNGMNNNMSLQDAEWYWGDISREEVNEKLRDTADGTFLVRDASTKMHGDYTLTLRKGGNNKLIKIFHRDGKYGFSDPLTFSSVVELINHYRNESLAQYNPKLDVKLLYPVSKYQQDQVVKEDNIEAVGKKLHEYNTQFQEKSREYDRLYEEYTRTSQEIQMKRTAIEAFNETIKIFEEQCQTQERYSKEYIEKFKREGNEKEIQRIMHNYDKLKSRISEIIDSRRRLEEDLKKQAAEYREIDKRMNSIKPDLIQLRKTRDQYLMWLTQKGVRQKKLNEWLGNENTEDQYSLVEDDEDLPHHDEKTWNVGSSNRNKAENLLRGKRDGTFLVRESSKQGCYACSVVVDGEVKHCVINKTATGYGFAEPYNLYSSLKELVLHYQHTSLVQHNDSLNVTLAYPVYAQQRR
From the text: as §1, §2, §3

[3] = PIP2diC8 lipid substrate (footnote 1)

Structure (SMILES) | IC50 ([1]; Soy PI lipid substrate) | IC50 ([2]; Soy PI lipid substrate) | IC50 [1, 3] | IC50 [2, 3]
Cc1cc(C(C)Nc2ccccc2C(=O)O)c2oc(-c3ccc(C(=O)N(C)C)cc3)cc(=O)c2c1 (centres unmarked) [Example 8, 2-[1-[2-[4-(Dimethylcarbamoyl)-phenyl]-6-methyl-4-oxo-chromen-8-yl]ethylamino]benzoic acid 2,2,2-trifluoroacetic acid] | > 10 µM | < 0.5 µM | – | –
Cc1cc([C@@H](C)Nc2ccccc2C(=O)O)c2oc(-c3ccccc3)cc(=O)c2c1 [Example 22, 2-[[(1R)-1-(6-Methyl-4-oxo-2-phenyl-chromen-8-yl)ethyl]amino]benzoic acid] | – | – | < 0.5 µM | < 0.5 µM
CC(Nc1ccccc1C(=O)O)c1c(F)c(F)cc2c(=O)cc(-c3ccccc3)oc12 (centres unmarked) [Example 6, 2-[1-(6,7-Difluoro-4-oxo-2-phenyl-chromen-8-yl)ethylamino]benzoic acid 2,2,2-trifluoroacetic acid] | – | – | 1 to 5 µM | < 0.5 µM
Cc1cc(C(C)Nc2ccccc2C(=O)O)c2oc(-c3ccccc3)c(C#N)c(=O)c2c1 (centres unmarked) [Example 10, 2-[1-(3-Cyano-6-methyl-4-oxo-2-phenyl-chromen-8-yl)ethylamino]benzoic acid 2,2,2-trifluoroacetic acid] | 1 to 5 µM | < 0.5 µM | – | –
Cc1cc(C(C)Nc2ccccc2C(=O)O)c2oc(-c3ccc(S(C)(=O)=O)cc3)cc(=O)c2c1 (centres unmarked) [Example 9, 2-[1-[6-Methyl-2-(4-methylsulfonylphenyl)-4-oxo-chromen-8-yl]ethylamino]benzoic acid 2,2,2-trifluoroacetic acid] | > 10 µM | < 0.5 µM | – | –
Cc1cc([C@@H](C)Nc2ccccc2C(=O)O)c2oc(-c3cccc(F)c3)cc(=O)c2c1 [Example 18, 2-[[(1R)-1-[2-(3-Fluorophenyl)-6-methyl-4-oxo-chromen-8-yl]ethyl]amino]benzoic acid] | – | – | < 0.5 µM | < 0.5 µM
Cc1cc([C@@H](C)Nc2ccccc2C(=O)O)c2oc(-c3ccccc3F)cc(=O)c2c1 [Example 11, 2-[[(1R)-1-[2-(2-Fluorophenyl)-6-methyl-4-oxo-chromen-8-yl]ethyl]amino]benzoic acid] | 1 to 5 µM | < 0.5 µM | – | –
Cc1cc(C(C)Nc2ccccc2C(=O)O)c2oc(-c3ccc(C4(C)CC4)cc3)cc(=O)c2c1 (centres unmarked) [Example 12, 2-[1-[6-Methyl-2-[4-(1-methylcyclopropyl)-phenyl]-4-oxo-chromen-8-yl]ethylamino]benzoic acid 2,2,2-trifluoroacetic acid] | 5 to 10 µM | 0.5 to 1 µM | – | –
Cc1cc([C@@H](C)Nc2ccc(Cl)nc2C(=O)O)c2oc(-c3ccccc3)cc(=O)c2c1 [Example 2, 6-Chloro-3-[[(1R)-1-(6-methyl-4-oxo-2-phenyl-chromen-8-yl)ethyl]amino]pyridine-2-carboxylic acid] | < 0.5 µM | < 0.5 µM | – | –
Cc1cc([C@@H](C)Nc2ccccc2C(=O)O)c2oc(-c3cccc(C#N)c3)cc(=O)c2c1 [Example 16, 2-[[(1R)-1-[2-(3-Cyanophenyl)-6-methyl-4-oxo-chromen-8-yl]ethyl]amino]benzoic acid] | – | – | 0.5 to 1 µM | < 0.5 µM

More lines, now with the values ahead:

IC50 ([1]; Soy PI lipid substrate) | IC50 ([2]; Soy PI lipid substrate) | IC50 [1, 3] | IC50 [2, 3] | Structure (SMILES)
> 10 µM | < 0.5 µM | – | – | Cc1cc(C(C)Nc2ccccc2C(=O)O)c2oc(-c3ccc(N4CCCC4)cc3)cc(=O)c2c1 (centres unmarked) [Example 45, 2-[1-[6-Methyl-4-oxo-2-(4-pyrrolidin-1-ylphenyl)chromen-8-yl]ethylamino]benzoic acid 2,2,2-trifluoroacetic acid]
0.5 to 1 µM | < 0.5 µM | – | – | Cc1cc([C@@H](C)Nc2ccccc2C(=O)O)c2oc(-c3ccccc3)c(I)c(=O)c2c1 [Example 79, 2-[[(1R)-1-(3-Iodo-6-methyl-4-oxo-2-phenyl-chromen-8-yl)ethyl]amino]benzoic acid 2,2,2-trifluoroacetic acid]
> 10 µM | < 0.5 µM | – | – | CC(Nc1ccccc1C(=O)O)c1cc(F)c(F)c2c(=O)cc(-c3ccccc3)oc12 (centres unmarked) [Example 64, 2-[1-(5,6-Difluoro-4-oxo-2-phenyl-chromen-8-yl)ethylamino]benzoic acid 2,2,2-trifluoroacetic acid]
1 to 5 µM | < 0.5 µM | – | – | Cc1cc([C@@H](C)Nc2ccccc2C(=O)O)c2oc(-c3ccc(F)cc3F)cc(=O)c2c1 [Example 57, 2-[[(1R)-1-[2-(2,4-Difluorophenyl)-6-methyl-4-oxo-chromen-8-yl]ethyl]amino]benzoic acid 2,2,2-trifluoroacetic acid]
> 10 µM | > 10 µM | – | – | Cc1cc(C(C)Nc2ccccc2C(=O)O)c2oc(-c3ccccc3)c(C#N)c(=O)c2c1 (single isomer, unassigned; isomer 1) [Example 61, 2-[1-(3-Cyano-6-methyl-4-oxo-2-phenyl-chromen-8-yl)ethylamino]benzoic acid, Isomer 1]
1 to 5 µM | < 0.5 µM | – | – | Cc1cc(C(C)Nc2cccc(F)c2C(=O)O)c2oc(-c3ccccc3F)cc(=O)c2c1 (single isomer, unassigned; isomer 1) [Example 107, 2-Fluoro-6-[1-[2-(2-fluorophenyl)-6-methyl-4-oxo-chromen-8-yl]ethylamino]benzoic acid, Isomer 1]
5 to 10 µM | < 0.5 µM | – | – | C[C@@H](Nc1ccccc1C(=O)O)c1cc(F)cc2c(=O)cc(-c3cccc(C(F)F)c3)oc12 [Example 80, 2-[[(1R)-1-[2-[3-(Difluoromethyl)phenyl]-6-fluoro-4-oxo-chromen-8-yl]ethyl]amino]benzoic acid 2,2,2-trifluoroacetic acid]
5 to 10 µM | < 0.5 µM | – | – | CC(Nc1ccccc1C(=O)O)c1cc(C(F)(F)F)cc2c(=O)cc(-c3ccccc3)oc12 (single isomer, unassigned; isomer 2) [Example 87, 2-[1-[4-Oxo-2-phenyl-6-(trifluoromethyl)-chromen-8-yl]ethylamino]benzoic acid, Isomer 2]
0.5 to 1 µM | < 0.5 µM | – | – | Cc1c(-c2cccc(C#N)c2)oc2c([C@@H](C)Nc3ccc(Cl)nc3C(=O)O)cc(C(F)(F)F)cc2c1=O [Example 100, 6-Chloro-3-[[(1R)-1-[2-(3-cyanophenyl)-3-methyl-4-oxo-6-(trifluoromethyl)-chromen-8-yl]ethyl]amino]pyridine-2-carboxylic acid]
5 to 10 µM | < 0.5 µM | – | – | Cc1cc(C(C)Nc2ccccc2C(=O)O)c2oc(-c3ccc(C(=O)N(C)C)cc3)cc(=O)c2c1 (single isomer, unassigned; isomer 1) [Example 49, 2-[1-[2-[4-(Dimethylcarbamoyl)-phenyl]-6-methyl-4-oxo-chromen-8-yl]ethylamino]benzoic acid, Isomer 1]
1 to 5 µM | < 0.5 µM | – | – | C[C@@H](Nc1ccc(Cl)nc1C(=O)O)c1cc(C(F)(F)F)cc2c(=O)cc(-c3ccccc3)oc12 [Example 82, 6-Chloro-3-[[(1R)-1-[4-oxo-2-phenyl-6-(trifluoromethyl)-chromen-8-yl]ethyl]amino]pyridine-2-carboxylic acid]
> 10 µM | < 0.5 µM | – | – | Cc1cc([C@@H](C)Nc2cncnc2C(=O)O)c2oc(-c3ccccc3)c(C)c(=O)c2c1 [Example 74, 5-[[(1R)-1-(3,6-Dimethyl-4-oxo-2-phenyl-chromen-8-yl)ethyl]amino]pyrimidine-4-carboxylic acid]
